Data taken from patent US8871772B2, “Therapeutic methods and compounds” (Ampio Pharmaceuticals, Inc., priority 2008, dated 2014).

Tests used:
Assay type in all cases: cell-based
MMP-9 = experiment: Release of MMP-9 from STTG astrocytoma cells, gelatin zymogram; details: data not shown
AU565 cells = experiment: Cytotoxicity on confluent AU565 monolayers, cell titer assay
Method: To determine whether the decrease in cell titer signal caused by Cpd. 5 was due to the inhibition of proliferation or to cytotoxicity, STTG and AU565 cells were seeded at 10,000 cells/well in 96-well plates and grown until a confluent monolayer was obtained. Under these conditions, the cells should no longer proliferate. The culture medium was IMDM supplemented with 10% FBS. After the cells reached confluence, the culture medium was removed by aspiration and replaced with fresh medium containing the test compounds (see Table 2 below). The cell cultures were incubated for an additional 24 hours in the presence of the added compounds and then the cell titer signal was assayed by adding 20 μl Promega cell titer aqueous one reagent to each well. The plates were incubated at 37° C. for an additional 2 hours to allow the colorimetric assay to develop, and the OD of each well was determined in a microplate reader using a 530 nm filter. The OD of wells containing cell titer reagent in culture medium with no cells was subtracted from the OD of all experimental readings.
The % decrease of the total cell titer signal was determined using the following formula. ((Diluent OD−Experimental OD)/Diluent OD))×100. Data are presented in Table 2 as mean % decrease of cell titer signal of three separate experiments, plus or minus standard deviation. In the mean % decrease column, a positive number means a decrease in cell titer signal, while a negative number means an increase. The p values were calculated versus diluent controls.
This experiment was repeated, except using incubations of 18 hours, instead of 24 hours, in the presence of the compounds and 4 hours, instead of 2 hours, for color development.

Akt = Akt phosphorylation in AU565 breast cancer cells, CASE ELISA (S473); details: Homo sapiens, IGF-1 stimulated; for inhibition at 50 µM: AU565, 50 μM
Method: Assays were performed to determine the effect of Cpd. 5 (synthesis described in Example 1) on phosphorylation of Akt in the AU565 breast cancer cell line. Akt (or protein kinase B, PKB) is a serine/threonine kinase that promotes cellular survival. Akt is activated in response to many different growth factors, including IGF-1, EGF, bFGF, insulin, interleukin-3 (IL-3), IL-6, heregulin and VEGF. Akt has three isoforms, and activation of all three isoforms is similar in that phosphorylation of two sites is necessary for full activity. Once activated, Akt exerts anti-apoptotic effects through phosphorylation of substrates that directly or indirectly regulate apoptosis. Activation of the phosphatidylinositol 3 kinase (PI3K)/Akt signaling pathway contributes to tumorigenesis in many types of tissues, including breast, ovarian, brain, prostate and lymph tissues.
AU565 cells were grown in 75 cm^2 flasks using Iscove's modified Dulbecco's medium (IMDM; obtained from Lonza) supplemented with 10% fetal bovine serum (FBS, HyClone) and 1% penicillin/streptomycin solution (Lonza). Cells were removed from the flasks using trypsin/EDTA (Lonza) and counted using trypan blue to establish cell counts. […]
Following this incubation, 100 μl of serum-free IMDM containing either 0 or 400 ng/ml insulin-like growth factor-1 (IGF-1) (obtained from Sigma), an Akt phosphorylation promoter, were added, and the plates incubated at 37° C., 5% CO2, for 1 more hour. At the end of this time, the cells were fixed immediately with 4% formaldehyde, refrigerated, and the extent of phosphorylation of Akt determined using the Akt Cellular Activation of Signaling ELISA (CASE™ Kit for AKT […]; SABiosciences, Frederick, Md.) following the manufacturer's protocols. The CASE™ Kit for AKT S473 quantifies the amount of activated (phosphorylated) Akt protein relative to total Akt protein in parallel assays using a conventional ELISA format with colorimetric detection. […] Both primary antibodies are detected using a horseradish peroxidase-labeled secondary antibody. […]
The results were calculated as follows. […]

[1] = confluent AU565, 50 μM, 18 hours
[2] = confluent AU565, 50 μM, 24 hours

Row | Structure (SMILES) | effect on the release of MMP-9 from the STTG cells (MMP-9) | MEAN % DECREASE of cell titer signal (AU565 cells; confluent AU565, 10 μM, 18 hours) [%] | MEAN % DECREASE of cell titer signal (AU565 cells; confluent AU565, 10 μM, 24 hours) [%] | MEAN % DECREASE of cell titer signal (AU565 cells; [1]) [%] | MEAN % DECREASE of cell titer signal (AU565 cells; [2]) [%] | MEAN % DECREASE of cell titer signal (AU565 cells; confluent AU565, 100 μM, 18 hours) [%] | MEAN % DECREASE of cell titer signal (AU565 cells; confluent AU565, 100 μM, 24 hours) [%] | inhibition at 10 µM (Akt; AU565, 10 μM) [%] | inhibition at 50 µM (Akt) [%]
1 | COC(=O)C(c1ccc(-c2ccccc2)cc1)C1NC(=O)CNC1=O (stereo not drawn) [Cpd. 5, biphenyl-4-yl-(3,6-dioxo-piperazin-2-yl)-acetic acid methyl ester] | no effect | −5.61 | −8.87 | −9.73 | −10.79 | −10.69 | −11.05 | 104 | 92
2 | O=c1cc(N2CCOCC2)oc2c(-c3ccccc3)cccc12 [LY294002, reference compound] | – | – | – | 22.25 | 2.94 | – | – | – | 92.4
